Results from patent US8192962B2, “Processes for detecting toxic substances” (Daikin Industries, Ltd., priority 2001, dated 2012).

Test system: Mitochondria-located protein genes
Assay: DNA chip mRNA expression in yeast, mitochondria-located protein genes (Table 2)
Assay type: cell-based, Saccharomyces cerevisiae S288C
Conditions: cells incubated two hours with the chemical substance
Outline: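 Cells were grown at 25° C. in YPD, treated at logarithmic phase for 2 h with a chemical at a concentration inhibiting growth but not causing death, and compared with untreated cultures. Labeled cDNA was hybridized to a DNA chip carrying all yeast genes, and the expression ratio was taken from scanner fluorescence.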

Q: Which “The level of expressed mRNA in the presence of chemical substance/The level of expressed mRNA in the absence of chemical substance” value (yeast gene YAL039C) does the source give for [Cl][Hg][Cl] [(3), HgCl2] here?
A: 1.7

Q: And the “The level of expressed mRNA in the presence of chemical substance/The level of expressed mRNA in the absence of chemical substance” value (yeast gene YBL022C)?
A: 1.2

Q: And the “The level of expressed mRNA in the presence of chemical substance/The level of expressed mRNA in the absence of chemical substance” value (yeast gene YBL030C)?
A: 4.5

Q: What about the “The level of expressed mRNA in the presence of chemical substance/The level of expressed mRNA in the absence of chemical substance” value (yeast gene YBL038W) of the same compound?
A: 0.5

Q: And the “The level of expressed mRNA in the presence of chemical substance/The level of expressed mRNA in the absence of chemical substance” value (yeast gene YBL099W)?
A: 3.1

Q: What about the “The level of expressed mRNA in the presence of chemical substance/The level of expressed mRNA in the absence of chemical substance” value (yeast gene YBR003W) of the same compound?
A: 1.0

Q: And the “The level of expressed mRNA in the presence of chemical substance/The level of expressed mRNA in the absence of chemical substance” value (yeast gene YBR044C)?
A: 0.7

Q: What about the “The level of expressed mRNA in the presence of chemical substance/The level of expressed mRNA in the absence of chemical substance” value (yeast gene YBR091C) of the same compound?
A: 0.6

Q: What about the “The level of expressed mRNA in the presence of chemical substance/The level of expressed mRNA in the absence of chemical substance” value (yeast gene YBR122C) of the same compound?
A: 0.3

Q: What about the “The level of expressed mRNA in the presence of chemical substance/The level of expressed mRNA in the absence of chemical substance” value (yeast gene YBR185C) of the same compound?
A: 1.3

Q: And the “The level of expressed mRNA in the presence of chemical substance/The level of expressed mRNA in the absence of chemical substance” value (yeast gene YBR221C)?
A: 3.2

Q: And the “The level of expressed mRNA in the presence of chemical substance/The level of expressed mRNA in the absence of chemical substance” value (yeast gene YBR251W)?
A: 1.0

Q: And the “The level of expressed mRNA in the presence of chemical substance/The level of expressed mRNA in the absence of chemical substance” value (yeast gene YBR282W)?
A: 0.5

Q: And the “The level of expressed mRNA in the presence of chemical substance/The level of expressed mRNA in the absence of chemical substance” value (yeast gene YCL057W)?
A: 2.3

Q: And the “The level of expressed mRNA in the presence of chemical substance/The level of expressed mRNA in the absence of chemical substance” value (yeast gene YCR046C)?
A: 1.2

Q: What about the “The level of expressed mRNA in the presence of chemical substance/The level of expressed mRNA in the absence of chemical substance” value (yeast gene YCR083W) of the same compound?
A: 1.5

Q: What about the “The level of expressed mRNA in the presence of chemical substance/The level of expressed mRNA in the absence of chemical substance” value (yeast gene YDL067C) of the same compound?
A: 1.6

Q: And the “The level of expressed mRNA in the presence of chemical substance/The level of expressed mRNA in the absence of chemical substance” value (yeast gene YDL181W)?
A: 1.9

Q: What about the “The level of expressed mRNA in the presence of chemical substance/The level of expressed mRNA in the absence of chemical substance” value (yeast gene YDL198C) of the same compound?
A: 2.1

Q: And the “The level of expressed mRNA in the presence of chemical substance/The level of expressed mRNA in the absence of chemical substance” value (yeast gene YDR079W)?
A: 0.8

Q: What about the “The level of expressed mRNA in the presence of chemical substance/The level of expressed mRNA in the absence of chemical substance” value (yeast gene YDR178W) of the same compound?
A: 3.4

Q: And the “The level of expressed mRNA in the presence of chemical substance/The level of expressed mRNA in the absence of chemical substance” value (yeast gene YDR231C)?
A: 1.0

Q: What about the “The level of expressed mRNA in the presence of chemical substance/The level of expressed mRNA in the absence of chemical substance” value (yeast gene YDR258C) of the same compound?
A: 2.8

Q: And the “The level of expressed mRNA in the presence of chemical substance/The level of expressed mRNA in the absence of chemical substance” value (yeast gene YDR298C)?
A: 2.6

Q: What about the “The level of expressed mRNA in the presence of chemical substance/The level of expressed mRNA in the absence of chemical substance” value (yeast gene YDR347W) of the same compound?
A: 0.9

Q: And the “The level of expressed mRNA in the presence of chemical substance/The level of expressed mRNA in the absence of chemical substance” value (yeast gene YDR377W)?
A: 1.3

Q: And the “The level of expressed mRNA in the presence of chemical substance/The level of expressed mRNA in the absence of chemical substance” value (yeast gene YDR529C)?
A: 0.9

Q: And the “The level of expressed mRNA in the presence of chemical substance/The level of expressed mRNA in the absence of chemical substance” value (yeast gene YEL024W)?
A: 3.8

Q: What about the “The level of expressed mRNA in the presence of chemical substance/The level of expressed mRNA in the absence of chemical substance” value (yeast gene YEL039C) of the same compound?
A: 1.3

Q: What about the “The level of expressed mRNA in the presence of chemical substance/The level of expressed mRNA in the absence of chemical substance” value (yeast gene YER178W) of the same compound?
A: 3.6

Q: What about the “The level of expressed mRNA in the presence of chemical substance/The level of expressed mRNA in the absence of chemical substance” value (yeast gene YFL016C) of the same compound?
A: 1.6

Q: And the “The level of expressed mRNA in the presence of chemical substance/The level of expressed mRNA in the absence of chemical substance” value (yeast gene YGL018C)?
A: 1.8

Q: And the “The level of expressed mRNA in the presence of chemical substance/The level of expressed mRNA in the absence of chemical substance” value (yeast gene YGL187C)?
A: 1.6

Q: What about the “The level of expressed mRNA in the presence of chemical substance/The level of expressed mRNA in the absence of chemical substance” value (yeast gene YGL191W) of the same compound?
A: 1.4

Q: And the “The level of expressed mRNA in the presence of chemical substance/The level of expressed mRNA in the absence of chemical substance” value (yeast gene YGR008C)?
A: 1.7

Q: And the “The level of expressed mRNA in the presence of chemical substance/The level of expressed mRNA in the absence of chemical substance” value (yeast gene YGR028W)?
A: 1.0

Q: And the “The level of expressed mRNA in the presence of chemical substance/The level of expressed mRNA in the absence of chemical substance” value (yeast gene YGR062C)?
A: 0.7

Q: What about the “The level of expressed mRNA in the presence of chemical substance/The level of expressed mRNA in the absence of chemical substance” value (yeast gene YGR076C) of the same compound?
A: 0.6

Q: What about the “The level of expressed mRNA in the presence of chemical substance/The level of expressed mRNA in the absence of chemical substance” value (yeast gene YGR082W) of the same compound?
A: 2.2

Q: And the “The level of expressed mRNA in the presence of chemical substance/The level of expressed mRNA in the absence of chemical substance” value (yeast gene YGR174C)?
A: 0.6

Q: And the “The level of expressed mRNA in the presence of chemical substance/The level of expressed mRNA in the absence of chemical substance” value (yeast gene YGR244C)?
A: 1.6

Q: And the “The level of expressed mRNA in the presence of chemical substance/The level of expressed mRNA in the absence of chemical substance” value (yeast gene YHR008C)?
A: 4.8

Q: And the “The level of expressed mRNA in the presence of chemical substance/The level of expressed mRNA in the absence of chemical substance” value (yeast gene YIL155C)?
A: 1.4

Q: What about the “The level of expressed mRNA in the presence of chemical substance/The level of expressed mRNA in the absence of chemical substance” value (yeast gene YJL096W) of the same compound?
A: 0.8

Q: What about the “The level of expressed mRNA in the presence of chemical substance/The level of expressed mRNA in the absence of chemical substance” value (yeast gene YJL102W) of the same compound?
A: 0.4

Q: What about the “The level of expressed mRNA in the presence of chemical substance/The level of expressed mRNA in the absence of chemical substance” value (yeast gene YJL133W) of the same compound?
A: 2.0

Q: And the “The level of expressed mRNA in the presence of chemical substance/The level of expressed mRNA in the absence of chemical substance” value (yeast gene YJL166W)?
A: 1.6

Q: What about the “The level of expressed mRNA in the presence of chemical substance/The level of expressed mRNA in the absence of chemical substance” value (yeast gene YJL180C) of the same compound?
A: 1.1

Q: What about the “The level of expressed mRNA in the presence of chemical substance/The level of expressed mRNA in the absence of chemical substance” value (yeast gene YJR045C) of the same compound?
A: 3.9

Q: And the “The level of expressed mRNA in the presence of chemical substance/The level of expressed mRNA in the absence of chemical substance” value (yeast gene YJR077C)?
A: 2.0
